Test results reported in paper PMC7848024, “Synthetic Cationic Autoantigen Mimics Glatiramer Acetate Persistence at the Site of Injection and Is Efficacious Against Experimental Autoimmune Encephalomyelitis” (Frontiers in Immunology, 2021).
“Also recorded” adds a separate entry of the source.

Legend:
[1] = Dynamic light scattering particle sizing; format: physicochemical
Description: Raman and dynamic light scattering were performed with a Malvern Helix (Malvern Instruments, Malvern, UK). 20 μl of K-PLP at a concentration of 10 mg/ml in 150 mM citrate-phosphate buffer at pH 6 was loaded into a custom steel cuvette with quartz windows. Raman scattering from a 785 nm laser was collected in a backscattering geometry. Samples were measured in triplicate, each replicate consisted of 10 acquisitions of 10 second exposure each. The Zetasizer Helix Analyze software (Malvern Instruments) was used to buffer subtract, normalize to the phenylalanine peak (1003 cm-1), then baseline spectra for analysis. Dynamic light scattering autocorrelation functions were measured with a 632 nm laser with light collected in a 173° angle backscattering geometry. Autocorrelation functions were fit using the method of cumulants.

[2] = Subcutaneous injection simulation (Scissor): aggregation and release; format: physicochemical; conditions: for formation of visible aggregates in HA: 1 ml of 20 mg/ml injected into 10 mg/ml HA (1.5–1.8 MDa), Scissor cartridge, visual observation
Description: The subcutaneous injection simulation was performed using the method previously described ([15]). 1 ml of 20 mg/ml K-PLP in 40 mg/ml mannitol solution was injected into Scissor cartridge containing 10 mg/ml 1.5–1.8 MDa hyaluronic acid (HA). Time points were collected over 3 days and concentration of K-PLP released into the chamber buffer was determined using a bicinchoninic acid assay (Micro BCA protein assay kit, Thermo Scientific, Waltham, MA) by constructing a calibration curve with K-PLP concentrations of 2, 5, 10, 20, 30, and 40 µg/ml. The concentration values were adjusted to account for K-PLP that was taken out during sampling and then converted to percentage of K-PLP released before plotted as a function of time.

[3] = tested on: EAE induced using PLP 139-151; experiment: In vivo efficacy study, EAE animal model; parameters: species or system SJL/J (H-2) mice
Description: In vivo efficacy of K-PLP was assessed using the EAE animal model induced in female 4-6-week old SJL/J (H-2) mice (20–25 g, Envigo, Indianapolis, IN). All protocols were approved through the University’s Institutional Animal Care and Use Committee, and all animals were housed in pathogen-free conditions. EAE induction and treatment schedule were based on methods previously described ([18]–[20]). […]. Additionally, on day 0 each mouse received a 100 μl intraperitoneal injection of pertussis toxin at 100 ng/ml. This administration of pertussis toxin was repeated on day 2. Beginning on day 7, disease severity was monitored daily through the use of a symptom scoring system as follows: 0, no clinical disease symptoms; 1, weakness or limpness of the tail; 2, weakness or partial paralysis of one or two hind limbs (paraparesis); 3, full paralysis of both hind limbs (paraplegia); 4, paraplegia plus weakness or paralysis of forelimbs; 5, moribund (euthanasia necessary). Mouse weight was also recorded daily throughout the study. In vivo treatment groups consisted of 6 mice per group. Treatments were administered in 100 μl SC injections formulated in 40 mg/ml mannitol. Injections were administered between the shoulder blades. Copaxone and K-PLP were administered at 4.5 mg/ml while 9-unit poly-lysine was administered at the molar equivalent to K-PLP injections, resulting in a concentration of 1.7 mg/ml. Treatment injections were performed on days 4, 7, and 10 following EAE induction. Mouse weights were recorded daily beginning on day 0 and clinical scores were recorded daily beginning on day 7. Statistical analysis was performed using two-way analysis of variance (ANOVA) on the clinical scores and weights, one-way ANOVA on the cumulative clinical scores, followed by Turkey comparison tests for all. Statistical significance for all analyses was set at p<0.05. All statistical analyses were performed using GraphPad Software (GraphPad Software Inc.).

[4] = cited from earlier work; for formation of visible aggregates in the presence of HA (literature): in the presence of glycosaminoglycans such as HA
Source text: GA consists of a broad population of peptides (average MW 5–9 kDa) comprising four amino acids (AKEY). Lysine is the predominant amino acid at ~34% of the molar mass, which imbues a strong cationic character (pI ~10). […] Approximately 30% of GA remained aggregated after 3 days according to in vitro subcutaneous (SC) injection simulation experiments. […] GEMSP consists of a mixture of fatty acid linked poly-lysine (PLL), antioxidants-PLL, free radical scavengers-PLL, and amino acids-PLL.

footpads of mice = experiment: In vivo migration imaging: retention at the footpad injection site; conditions: 10 μl into the footpad, cy7-labeled mixed with unlabeled compound, 20 mg/ml (PLP molar equivalent), dye 25 μM; 1-4 h; near-IR imaging; one mouse per compound
Description: Herein, the labeled compounds will be referred to as cy7-GA, cy7-K-PLP, cy7-PEG and cy7-PLP.
Similar imaging method as previously described was used ([15]). Three female SJL/J mice (20-25 g, Envigo, Indianapolis, IN) were used for imaging, one each for K-PLP, PLP, and GA. Unlabeled K-PLP and unlabeled GA were mixed with cy7-K-PLP and cy7-GA, respectively, to a final concentration of 20 mg/ml with the amount of dye normalized to the equivalent of 25 μM of free cyanine 7 dye. Similarly, unlabeled PLP was mixed with cy7-PLP to a concentration that is molar equivalent to 20 mg/ml of K-PLP with the amount of dye normalized to the equivalent of 25 μM of free cyanine 7 dye. Each mouse was injected with 10 μl of their respective treatment at the center of the footpad every hour for 4 h in the following order: left forelimb at the 1-h time point, right forelimb at the 2-h time point, left hindlimb at the 3-h time point, and right hindlimb at the 4-h time point for K-PLP; right forelimb at the 1-h time point, left forelimb at the 2-h time point, right hindlimb at the 3-h time point, and left hindlimb at the 4-h time point for both GA and PLP. […]

Row | Substance | mean size (DLS) ([1]; 10 mg/ml in 150 mM citrate-phosphate buffer pH 6, 632 nm laser, 173° backscattering, method of cumulants, triplicate) | polydispersity (DLS) ([1]; 10 mg/ml in 150 mM citrate-phosphate buffer pH 6, over the temperature ramp) | formation of visible aggregates in HA [2] | release rate compared to GA ([2]; Scissor release profile over 3 days, GA profile from ref 15) | remained in the cartridge at the end of the three-day experiment ([2]; Scissor, 20 mg/ml into 10 mg/ml HA, end of 3 days) | plateau of release into the chamber after 2 days ([2]; Scissor, 1 ml of 20 mg/ml in 40 mg/ml mannitol into 10 mg/ml HA, after 2 days, Micro BCA assay) | K-PLP released into the chamber over the first 3 h ([2]; Scissor, 1 ml of 20 mg/ml in 40 mg/ml mannitol into 10 mg/ml HA, first 3 h, Micro BCA assay) | clinical score ([3]; 100 μl SC in 40 mg/ml mannitol, 4.5 mg/ml, days 4, 7 and 10, scores to day 25, 6 mice per group) | percentage of disease-free mice ([3]; 100 μl SC, days 4, 7 and 10, 6 mice per group) | weight decrease ([3]; 100 μl SC, days 4, 7 and 10, % weight change normalized to day 7, 6 mice per group) | weight loss from day 13 to day 17 (peak disease) ([3]; compared to 9-unit poly-lysine (p<0.0001) and PLP (p<0.01), two-way ANOVA) | cumulative clinical scores, day 0 to day 25 ([3]; one-way ANOVA, 6 mice per group) | disease progression compared to the control (mannitol) ([3]; 100 μl SC, days 4, 7 and 10, Copaxone 4.5 mg/ml, 9-unit poly-lysine 1.7 mg/ml, 6 mice per group) | formation of visible aggregates in the presence of HA (literature) [4] | remained aggregated after 3 days ([4]; in vitro subcutaneous injection simulation, 3 days) | fluorescence intensity at the footpads over 4 h (footpads of mice)
1 | NH2-KKKKKKKKKKK-PEG-PEG-PEG-PEG-HSLGKWLGHPDKF-OH [K-PLP] | around 2 nm | less than 0.3 | visible aggregates were formed immediately | released at a similar rate as GA | approximately 20% | around 80% | approximately 20% | lowest clinical score | highest percentage of disease-free mice | least weight decrease | no significant weight loss | significant improvement over 9-unit poly-lysine, but not PLP | – | – | – | –
2 | glatiramer acetate [GA, reference compound] | – | – | Formation of aggregates was observed immediately | – | – | – | – | – | – | – | – | – | any deviations from the control were not statistically significant; also recorded: did not significantly improve the clinical outcomes | forms large, visible aggregates | Approximately 30% | did not significantly decrease over the course of the experiment
3 | poly-lysine | – | – | – | – | – | – | – | – | – | – | – | – | – | able to form visible aggregates | – | –
